This note sets out measurements from patent US20200371122A1, “BIOMARKER FOR SENESCENT CELLS” (Buck Institute for Research on Aging, priority 2017, published 2020).

The structures appear in SMILES notation.

One series relates to IMR-90 fibroblasts. Format: cell-based, human. The protocol: (§1) Human fetal lung fibroblasts (IMR-90) were cultured in Dulbecco's modified eagle medium (DMEM) supplemented with 10% FBS and penicillin/streptomycin. LL 29 (AnHa) cells were obtained from the ATCC and growth to confluence using the ATCC protocol, but were subcultured as described for IMR-90 before initiation of all experiments. Quiescence was induced by replacing culture media with media containing 0.2% FBS. MCF-7 and MDA-MB-231 breast cancer cells were cultured in RPMI supplemented with 10% FBS and penicillin/streptomycin. All cells were cultured at 3% O2, and used between 25 and 40 population doublings. All cells were mycoplasma free.
RNA was extracted from cells or tissues using commercially available kits (Isolate II—Bioline for cells; Direct-zol—Zymo for tissues) according to the manufacturer's instructions. cDNA synthesis was performed using a High Capacity cDNA Reverse Transcription Kit (Thermo Fisher) according to the manufacturer's instructions. Quantitative PCR was performed on a LightCycler 480 II (Roche) using primers and probes designed for the Universal Probe Library. Primers and probes used for human transcripts were ACTB: 5′-CCAACCGCGAGAAGATGA (SEQ ID NO:1), 5′-TCCATCACGATGCCAGTG (SEQ ID NO:2), Probe #64; TUBA: 5′-cttcgtctccgccatcag (SEQ ID NO:3), 5′-ttgccaatctggacacca (SEQ ID NO:4), Probe #58; ALOX5: 5′-[…] (SEQ ID NO:5), 5′-[…] (SEQ ID NO:6), Probe #64; ALOX5AP: 5′-ggtctgcggggctacttt (SEQ ID NO:7), 5′-[…] (SEQ ID NO:8), Probe #18; ALOX12: 5′-[…] (SEQ ID NO:9), 5′-agccaggtcgtcaggag (SEQ ID NO:10), Probe #32; ALOX15: 5′-[…] (SEQ ID NO:11), 5′-[…] (SEQ ID NO:12), Probe #76; ALOX15B: 5′-[…] (SEQ ID NO:13), 5′-actgggaggcgaagaagg (SEQ ID NO:14), Probe #51; AKR1C1: 5′-catgcctgtcctgggattt (SEQ ID NO:15), 5′-[…] (SEQ ID NO:16), Probe #49; AKR1C2: 5′-ctatgcgcctgcagaggt (SEQ ID NO:17), 5′-[…] (SEQ ID NO:18), Probe #31; AKR1C3: 5′-[…] (SEQ ID NO:19), 5′-[…] (SEQ ID NO:20), Probe #78; CYSLTR2: 5′-[…] (SEQ ID NO:21), 5′-[…] (SEQ ID NO:22), Probe #18; DPEP1: 5′-gacgtcctgaggctggtg (SEQ ID NO:23), 5′-[…] (SEQ ID NO:24), Probe #9 (SEQ ID NO:25), ELOVL2: 5′-[…] (SEQ ID NO:26), 5′-[…] (SEQ ID NO:27), Probe #53; ELOVL4: 5′-catttggcccatggattc (SEQ ID NO:28), 5′-[…] (SEQ ID NO:29), Probe #31; ELOVL5: 5′-cccttccatgcgtccata (SEQ ID NO:30), 5′-[…] (SEQ ID NO:31), Probe #31; EPHX2: 5′-ttctgctggacaccctgaa (SEQ ID NO:32), 5′-[…] (SEQ ID NO:33), Probe #45; GPX4: 5′-ttcccgtgtaaccagttcg (SEQ ID NO:34), 5′-[…] (SEQ ID NO:35), Probe #36; LTA4H: 5′-ctgctctcacggtccagtc (SEQ ID NO:36), 5′-[…] (SEQ ID NO:37), Probe #64; LTBR2: 5′-[…] (SEQ ID NO:38), 5′-[…] (SEQ ID NO:39), Probe #33; LTC4S: 5′-[…] (SEQ ID NO:40), 5′-[…] (SEQ ID NO:41), Probe #18; PTGDS: 5′-[…] (SEQ ID NO:42), 5′-[…] (SEQ ID NO:43), Probe #36; PTGES: 5′-agagatgcctgcccacag (SEQ ID NO:44), 5′-tggccaccacgtacatctt (SEQ ID NO:45), Probe #4; PTGES2: 5′-[…] (SEQ ID NO:46), 5′-[…] (SEQ ID NO:47), Probe #49; PTGES3 (SEQ ID NO:48), 5′-[…] (SEQ ID NO:49), 5′-[…] (SEQ ID NO:50), Probe #48; PTGIS: 5′-[…] (SEQ ID NO:51), 5′-[…] (SEQ ID NO:52), Probe #45; PTGR1: 5′-atgatggggcagcaagtg (SEQ ID NO:53), 5′-cccatcagaaatggagtgc (SEQ ID NO:54), Probe #64; PTGS1: 5′-[…] (SEQ ID NO:55), 5′-gtggtggtccatgttcctg (SEQ ID NO:56), Probe #81; PTGS2: 5′-gatccccagggctcaaac (SEQ ID NO:57), 5′-[…] (SEQ ID NO:58), Probe #61; TBXAS1: 5′-[…] (SEQ ID NO:59), 5′-tgcctcccgtgtgaatct (SEQ ID NO:60), Probe #73; AREG: 5′-[…] (SEQ ID NO:61), 5′-[…] (SEQ ID NO:62), Probe #73; CCL2: 5′-AGTCTCTGCCGCCCTTCT (SEQ ID NO:63), 5′-GTGACTGGGGCATTGATTG (SEQ ID NO:64), Probe #40; CCL27: 5′-[…] (SEQ ID NO:65), 5′-gctgggtggcagtaggaat (SEQ ID NO:66), Probe #18; CXCL1: 5′-[…] (SEQ ID NO:67), 5′-[…] (SEQ ID NO:68), Probe #52; HGF: 5′-[…] (SEQ ID NO:69), 5′-[…]

The subject of series [1] is IL-6 secretion in senescent cells. Nature of the series: IL-6 ELISA on conditioned media of IR-induced senescent cells treated with COX-2/ALOX5 inhibitors. Format: cell-based, human. To be noted: SEN(IR) IMR-90, inhibitor for 10 days. The protocol: as §1
Senescence was induced by irradiation with 10 Gy of ionizing radiation. Non-senescent controls (proliferating or quiescent) were placed in the irradiator for an identical period of time without turning on the irradiator. Oncogene-induced senescence was induced via lentiviral overexpression of HRAS^V12, as described previously (Wiley et al. (2016) Cell Metab. 23: 303-314).
3×10^4 cells in 12-well plates were treated as indicated in the text, and cultured in 0.5-1 ml serum-free DMEM for 24 hr. CM were collected and clarified at 2,000×g for 10 min. Supernatants were transferred to a tube; cells were trypsinized and counted. CM (2.5 μl) were analyzed by bead-based ELISAs (AlphaLISA, Perkin-Elmer) as instructed by the manufacturer and normalized to cell number.

On to `CC(/C=C/c1cccc(Oc2ccc(F)cc2)c1)N(O)C(N)=O` (centres unmarked) [BW-B70C], for which the “growth of non-senescent cells” value in the series on IMR-90 fibroblasts is reported as “retarded growth”. Besides, the “lowered IL-6 secretion in senescent cells” value in series [1] was approximately 50%.
